Test results published in patent US10875874B2, “Ginkgolide B derivative and preparation method and use thereof” (Chengdu Baiyu Ginkgolide Pharmaceuticals Co., Ltd., priority 2015, dated 2020).
Marks after values point to notes of the source that are not given here.

What was measured:
Type in all cases: in vivo, rat
[1] = Weekly food intake of SHR rats
Experimental: (§1) 2.1 Grouping and administration of animals: 112 SHR rats (the female and male SHR rats are half and half, and the female rats are not pregnant) with the body weight of 200-250 g are taken, the rats are enabled to adapt to a laboratory for a period of 5 d, blood pressure is measured once at a day to enable the rats to adapt to the environment and detect stimulation. Then, weighing and numbering are carried out, and the SHR rats are equally divided into 14 groups randomly (each group comprises 8 rats), i.e., an SHR rat model control group, a positive control group (captopril, 27 mg/kg), a BZ large-dose group (120 mg/kg/d), a BZ small-dose group (60 mg/kg/d), a BA large-dose group (120 mg/kg/d), a BA small-dose group (60 mg/kg/d), a BL large-dose group (120 mg/kg/d), a BL small-dose group (60 mg/kg/d), a BM large-dose group (120 mg/kg/d), a BM small-dose group (60 mg/kg/d), a BD large-dose group (120 mg/kg/d), a BD small-dose group (60 mg/kg/d), a GB large-dose group (120 mg/kg/d) and a GB small-dose group (60 mg/kg/d). In addition, 8 healthy Wistar rats are taken as a normal control group. Intragastric administration is performed on the rats of each drug group separately according to the above-mentioned doses by 1 mL/100 g body weight, intragastric administration is performed on the rats of the normal control group and the rats of the SHR rat model control group with an equal volume of distilled water, and administration is performed continuously for 8 weeks.
(§2) 2.2 General state: during observation, conditions such as mind, water drinking, food intake, bowel movement, hair color, body weight and range of motion of rats are observed. Irritable degrees of the rats are divided into III levels: a level I means that the rats are free of obvious response when necks of the rats are seized; a level II means that the rats scream and startle when the necks of the rats are seized; and a level III means that the rats bite or rats of same cages frequently fight when the necks of the rats are seized.
(§3) 3.1 Influence on general state of spontaneously hypertensive rats: the rats of the normal control group are normal in food intake, drinking and motion conditions, sensitive in response, healthy and glossy in hair color, good in mental state and free of any unusual response; the rats of the SHR model group gradually present that back hair is fluffy, clustered and dim, the appetite is reduced, the body weight is reduced, the mind is dispirited and irritable, and the rats are prone to the behaviors of intense resisting, attacking and so on during administration and blood pressure detection, and irritable degrees are mostly changed to a level II and a level III from a level I; and after single administration of ginkgolide B and derivatives thereof, behavioral general state observations of rats of each group are free of obvious difference from those of the model control group.

[2] = Weekly body weight of SHR rats
Experimental: as §1, §2, §3

[3] = tested on: spontaneously hypertensive rats (SHR); test: Caudal artery systolic pressure of spontaneously hypertensive rats, single administration; settings: x ± s, n = 8
Experimental: as §1
(§4) 2.3 Blood pressure measuring: caudal artery systolic pressure of rats is measured with a Bp-6 noninvasive blood pressure measuring system. Under the condition that the rats are calm, the systolic pressure is continuously measured for 3 times, and the average value of the measured systolic pressure is taken as a pressure measuring result. Observation indexes: (1) single-administration pressure lowering effect: blood pressure of the rats is measured before administration and blood pressure conditions are measured 30 min, 60 min, 90 min and 120 min after first administration; and (2) continuous-administration pressure lowering condition: blood pressure is separately measured 30 min after administration at 1 d, 7 d, 13 d, 19 d, 25 d, 35 d, 49 d and 56 d, the blood pressure is repeatedly measured for 3 times at a day, and the average value of obtained values is taken as a final blood pressure value.

[4] = tested on: spontaneously hypertensive rats (SHR); test: Caudal artery systolic pressure of spontaneously hypertensive rats, 8 weeks of continuous medication; settings: x ± s, n = 8
Experimental: as §1, §4

[5] = 60 mg/kg/d intragastric, week 0
[6] = 60 mg/kg/d intragastric, week 1
[7] = 60 mg/kg/d intragastric, week 2
[8] = 60 mg/kg/d intragastric, week 3
[9] = 60 mg/kg/d intragastric, week 4
[10] = 60 mg/kg/d intragastric, week 5
[11] = 60 mg/kg/d intragastric, week 6
[12] = 60 mg/kg/d intragastric, week 7
[13] = 60 mg/kg/d intragastric, week 8
[14] = 120 mg/kg/d intragastric, week 0
[15] = 120 mg/kg/d intragastric, week 1
[16] = 120 mg/kg/d intragastric, week 2
[17] = 120 mg/kg/d intragastric, week 3
[18] = 120 mg/kg/d intragastric, week 4
[19] = 120 mg/kg/d intragastric, week 5
[20] = 120 mg/kg/d intragastric, week 6
[21] = 120 mg/kg/d intragastric, week 7
[22] = 120 mg/kg/d intragastric, week 8

**Q.** With CC1C(=O)OC2C(O)C34C5CC(C(C)(C)C)C36C(OC(=O)C6O)OC4(C(=O)O5)C12O (stereo not shown) [GB, ginkgolide B] as the molecule, how does the “Average dairy food intake” value [1, 5] read?
**A.** Its value is 18.6 g/day.

**Q.** And the “Average dairy food intake” value [1, 6]?
**A.** Its value is 20.1^▴ g/d.

**Q.** And the “Average dairy food intake” value [1, 7]?
**A.** The value was 18.9^▴ g/d.

**Q.** What about the “Average dairy food intake” value [1, 8] of the same molecule?
**A.** Its value is 17.7 g/day.

**Q.** What about the “Average dairy food intake” value [1, 9] of the same molecule?
**A.** Its value is 18.6^▴ g/d.

**Q.** And the “Average dairy food intake” value [1, 10]?
**A.** Its value is 21.7^▴▴ g/d.

**Q.** What about the “Average dairy food intake” value [1, 11] of the same molecule?
**A.** The value was 23.5^▴▴ g/d.

**Q.** What about the “Average dairy food intake” value [1, 12] of the same molecule?
**A.** Its value is 24.2^▴▴ g/d.

**Q.** What about the “Average dairy food intake” value [1, 13] of the same molecule?
**A.** Its value is 25.4^▴▴ g/d.

**Q.** What about the “Average dairy food intake” value [1, 14] of the same molecule?
**A.** Its value is 18.3 g/day.

**Q.** What about the “Average dairy food intake” value [1, 15] of the same molecule?
**A.** The value was 20.6^▴▴ g/d.

**Q.** And the “Average dairy food intake” value [1, 16]?
**A.** The value was 19.5^▴ g/d.

**Q.** And the “Average dairy food intake” value [1, 17]?
**A.** Its value is 20.6^▴▴ g/d.

**Q.** What about the “Average dairy food intake” value [1, 18] of the same molecule?
**A.** The value was 21.4^▴▴ g/d.

**Q.** What about the “Average dairy food intake” value [1, 19] of the same molecule?
**A.** The value was 22.8^▴▴ g/d.

**Q.** What about the “Average dairy food intake” value [1, 20] of the same molecule?
**A.** Its value is 24.6^▴▴ g/d.

**Q.** What about the “Average dairy food intake” value [1, 21] of the same molecule?
**A.** The value was 26.8^▴▴ g/d.

**Q.** And the “Average dairy food intake” value [1, 22]?
**A.** Its value is 28.2^▴▴ g/d.

**Q.** And the Body weight [2, 5]?
**A.** Its Body weight is 230.8 g.

**Q.** And the Body weight [2, 6]?
**A.** Its Body weight is 235.6 g.

**Q.** And the Body weight [2, 7]?
**A.** The Body weight was 243.1^▴ g.

**Q.** What about the Body weight [2, 8] of the same molecule?
**A.** Its Body weight is 250.2 g.

**Q.** And the Body weight [2, 9]?
**A.** Its Body weight is 258.9^▴ g.

**Q.** And the Body weight [2, 10]?
**A.** The Body weight was 262.4 g.

**Q.** And the Body weight [2, 11]?
**A.** The Body weight was 268.7^▴ g.

**Q.** And the Body weight [2, 12]?
**A.** The Body weight was 280.6^▴▴ g.

**Q.** What about the Body weight [2, 13] of the same molecule?
**A.** The Body weight was 290.1^▴▴ g.

**Q.** What about the Body weight [2, 14] of the same molecule?
**A.** The Body weight was 231.0 g.

**Q.** What about the Body weight [2, 15] of the same molecule?
**A.** The Body weight was 250.3^▴▴ g.

**Q.** And the Body weight [2, 16]?
**A.** The Body weight was 258.7^▴▴ g.

**Q.** And the Body weight [2, 17]?
**A.** Its Body weight is 263.4^▴▴ g.

**Q.** What about the Body weight [2, 18] of the same molecule?
**A.** The Body weight was 270.6^▴▴ g.

**Q.** And the Body weight [2, 19]?
**A.** The Body weight was 281.5^▴▴ g.

**Q.** And the Body weight [2, 20]?
**A.** The Body weight was 290.6^▴▴ g.

**Q.** What about the Body weight [2, 21] of the same molecule?
**A.** Its Body weight is 306.7^▴▴ g.

**Q.** What about the Body weight [2, 22] of the same molecule?
**A.** The Body weight was 321.2^▴▴ g.

**Q.** What about the Systolic pressure ([3]; 60 mg/kg intragastric single administration, 30 min) of the same molecule?
**A.** The Systolic pressure was 160.42 ± 9.56 mmHg.

**Q.** And the Systolic pressure ([3]; 60 mg/kg intragastric single administration, 60 min)?
**A.** The Systolic pressure was 153.15 ± 12.51 mmHg.

**Q.** And the Systolic pressure ([3]; 60 mg/kg intragastric single administration, 90 min)?
**A.** The Systolic pressure was 155.16 ± 11.26 mmHg.

**Q.** And the Systolic pressure ([3]; 60 mg/kg intragastric single administration, 120 min)?
**A.** The Systolic pressure was 159.17 ± 11.63 mmHg.

**Q.** And the Systolic pressure ([3]; 60 mg/kg intragastric single administration, before administration)?
**A.** The Systolic pressure was 168.41 ± 12.30 mmHg.

**Q.** And the Systolic pressure ([3]; 120 mg/kg intragastric single administration, 30 min)?
**A.** Its Systolic pressure is 151.46 ± 16.27 mmHg.

**Q.** And the Systolic pressure ([3]; 120 mg/kg intragastric single administration, 60 min)?
**A.** Its Systolic pressure is 157.54 ± 17.95 mmHg.

**Q.** And the Systolic pressure ([3]; 120 mg/kg intragastric single administration, 90 min)?
**A.** The Systolic pressure was 160.26 ± 16.54 mmHg.

**Q.** What about the Systolic pressure ([3]; 120 mg/kg intragastric single administration, 120 min) of the same molecule?
**A.** Its Systolic pressure is 152.21 ± 18.27 mmHg.

**Q.** What about the Systolic pressure ([3]; 120 mg/kg intragastric single administration, before administration) of the same molecule?
**A.** Its Systolic pressure is 167.49 ± 13.09 mmHg.

**Q.** What about the Systolic pressure ([4]; 60 mg/kg/d intragastric continuous, 1 d, 30 min after administration) of the same molecule?
**A.** The Systolic pressure was 155.67 ± 12.36 mmHg.

**Q.** What about the Systolic pressure ([4]; 60 mg/kg/d intragastric continuous, 7 d, 30 min after administration) of the same molecule?
**A.** Its Systolic pressure is 153.46 ± 10.74 mmHg.

**Q.** What about the Systolic pressure ([4]; 60 mg/kg/d intragastric continuous, 13 d, 30 min after administration) of the same molecule?
**A.** The Systolic pressure was 156.25 ± 10.84 mmHg.

**Q.** And the Systolic pressure ([4]; 60 mg/kg/d intragastric continuous, 19 d, 30 min after administration)?
**A.** The Systolic pressure was 150.68 ± 9.78 mmHg.

**Q.** And the Systolic pressure ([4]; 60 mg/kg/d intragastric continuous, 25 d, 30 min after administration)?
**A.** The Systolic pressure was 155.65 ± 10.57 mmHg.

**Q.** And the Systolic pressure ([4]; 60 mg/kg/d intragastric continuous, 35 d, 30 min after administration)?
**A.** Its Systolic pressure is 154.25 ± 10.74 mmHg.

**Q.** What about the Systolic pressure ([4]; 60 mg/kg/d intragastric continuous, 49 d, 30 min after administration) of the same molecule?
**A.** The Systolic pressure was 150.56 ± 10.42 mmHg.

**Q.** And the Systolic pressure ([4]; 60 mg/kg/d intragastric continuous, 56 d, 30 min after administration)?
**A.** Its Systolic pressure is 153.85 ± 9.24 mmHg.

**Q.** What about the Systolic pressure ([4]; 60 mg/kg/d intragastric continuous, before administration) of the same molecule?
**A.** Its Systolic pressure is 168.41 ± 12.30 mmHg.

**Q.** What about the Systolic pressure ([4]; 120 mg/kg/d intragastric continuous, 1 d, 30 min after administration) of the same molecule?
**A.** The Systolic pressure was 150.63 ± 10.25 mmHg.

**Q.** And the Systolic pressure ([4]; 120 mg/kg/d intragastric continuous, 7 d, 30 min after administration)?
**A.** Its Systolic pressure is 148.54 ± 9.27 mmHg.

**Q.** And the Systolic pressure ([4]; 120 mg/kg/d intragastric continuous, 13 d, 30 min after administration)?
**A.** The Systolic pressure was 141.74 ± 8.26 mmHg.

**Q.** What about the Systolic pressure ([4]; 120 mg/kg/d intragastric continuous, 19 d, 30 min after administration) of the same molecule?
**A.** The Systolic pressure was 140.95 ± 12.04 mmHg.

**Q.** And the Systolic pressure ([4]; 120 mg/kg/d intragastric continuous, 25 d, 30 min after administration)?
**A.** The Systolic pressure was 147.46 ± 9.85 mmHg.

**Q.** What about the Systolic pressure ([4]; 120 mg/kg/d intragastric continuous, 35 d, 30 min after administration) of the same molecule?
**A.** Its Systolic pressure is 142.33 ± 10.38 mmHg.

**Q.** And the Systolic pressure ([4]; 120 mg/kg/d intragastric continuous, 49 d, 30 min after administration)?
**A.** Its Systolic pressure is 138.79 ± 11.58 mmHg.

**Q.** And the Systolic pressure ([4]; 120 mg/kg/d intragastric continuous, 56 d, 30 min after administration)?
**A.** Its Systolic pressure is 135.28 ± 7.48 mmHg.

**Q.** And the Systolic pressure ([4]; 120 mg/kg/d intragastric continuous, before administration)?
**A.** The Systolic pressure was 167.49 ± 13.09 mmHg.
